Measurements published in publication PMC11613437, “Prioritization of Eleven-Nineteen-Leukemia Inhibitors as Orally Available Drug Candidates for Acute Myeloid Leukemia” (Journal of Medicinal Chemistry, 2024).
Read-outs that look alike come from different tables or passages of the source.

How the values were obtained:
ENL YEATS = target: T1, ENL YEATS (Homo sapiens, UniProt Q03111); assay: AlphaScreen assay with biotinylated ENL-S1 peptide; conditions: inhibition of ENL YEATS binding to ENL-S1 peptide; mean ± SD, n = 3; read-out: Alpha IC50 (nM) for ENL YEATS
T1 construct: final concentrations of 100 nM His-ENL YEATS, 100 nM Biotin-ENL-S1
T1 sequence (Q03111 1-138 limits assumed): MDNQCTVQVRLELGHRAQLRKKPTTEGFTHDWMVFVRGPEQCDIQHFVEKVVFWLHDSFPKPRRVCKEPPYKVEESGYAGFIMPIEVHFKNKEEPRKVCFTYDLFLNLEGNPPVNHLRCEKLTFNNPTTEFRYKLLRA
Experimental: The AlphaScreen assay was carried out in 384-well plates. Manual assay setup was performed in a 40 μL reaction buffer (50 mM HEPES pH 7.4, 100 mM NaCl, 0.1% bovine serum albumin, and 0.05% CHAPS) with final concentrations of 100 nM His-ENL YEATS, 100 nM Biotin-ENL-S1, and 20 μg/mL of AlphaScreen donor and acceptor beads. The protein, peptide, and compounds were mixed and incubated for 1 h at room temperature and then incubated for 30 min in dark after adding the α beads. AlphaScreen-signals were detected by a multimode microplate reader (BioTeK Synergy Neo2) equipped with an Alpha-laser (PerkinElmer).

[1] = Log D at pH 7.4 (chromatographic procedure); type: physicochemical; conditions: n-octanol / aqueous buffer pH 7.4, pH 7.4
Experimental: Log D at 7.4, which is a partition coefficient between n-octanol and aqueous buffer pH 7.4 of the compounds was measured on the chromatographic procedure whose condition was developed based on a published method.[35]

[2] = In vitro metabolic stability assay in HLM; type: in vitro ADME, human; conditions: for CLint scaled at 1 h: read-out: Liver Microsome CLint, pred
Experimental: At 0, 5, 15, 30, 45, and 60 min, 200 μL acetonitrile (with the internal standard diclofenac as 10 μg/mL) was added to terminate the reaction, the remaining compound was analyzed by HPLC-MS/MS.

[3] = Cell toxicity assay (CCK-8), MOLM-13; type: cell-based; conditions: human, MOLM-13 cells, 8 day treatment, n = 3; read-out: CC50 MOLM-13 (Cellular IC50, 8-days incubation)
Experimental: (§1) Approximately 1 × 10^4 JURKAT, MOLM-13, MV4-11 and HEK293T cells in RPMI 1640 (no phenol red) (100 μL) were added to a 96-well plate and treated with DMSO or a compound at indicated concentrations for 72 h or 8 days. Cell viability was measured using the CCK-8 kit (Abcam, ab228554) according to the manufacturer’s instructions.

[4] = Cell toxicity assay (CCK-8), HEK293T; type: cell-based; conditions: human, HEK293T cells; 72 h (3-days) treatment, n = 3; read-out: CC50 HEK293T (Cellular IC50, 3-days incubation)
Experimental: as §1

MOLM-13 cells = assay: Anti-proliferation assay, MOLM-13; type: cell-based; conditions: Homo sapiens, MOLM-13, 336 h, approximately 2 weeks, read-out: inhibition of MOLM-13 cell proliferation
Experimental: (§2) Cell proliferation assays were carried out in a 96-well tissue culture plate at 2 × 10^4 cells/well for all cell lines except in 200 μL with a compound added as 1:1000 dilution of DMSO stocks in triplicate. Culture density was determined every 3–4 days using the countess automated cell counter, after which 2 × 10^4 live cells were reseeded in fresh media and compound. The cumulative cell count was achieved by back calculation.

MV4-11 cells = assay: Anti-proliferation assay, MV4-11; type: cell-based; conditions: Homo sapiens, MV4-11, 336 h, approximately 2 weeks, read-out: inhibition of MV4-11 cell proliferation
Experimental: as §2

PK analysis in mice = type: in vivo; conditions: plasma; for half-life at 24 h: read-out: t1/2 (h), PO (converted)
Experimental: Male CD-1 mice were used in the PK study. A compound was dissolved in a mixed solution containing 75% PEG300 and 25% D5W (5% dextrose in distilled water) or another solution containing 0.5% methyl cellulose and 0.5% Tween 80 in water at indicated dosage for i.v. and p.o. administrations, respectively. Three mice were used for each administration. Blood samples were taken from a vein at different time points up to 24 h after dosing, collected in tubes coated with an anticoagulant, and centrifuged at 1.5 × 10^4 g for 5 min to obtain plasma samples. Acetonitrile-containing internal standard (Labetalol, 100 ng/mL) was added to the plasma to precipitate proteins. The samples were subjected to vortex mixing for 10 min and then centrifugation at 4 °C for 15 min at 3220g. Then clear supernatants were analyzed by HPLC-MS/MS.

MOLM-13-Luc cells = assay: Antitumor analysis in MOLM-13-Luc xenografted NSG mice; type: in vivo
Excerpt: Animal studies were approved by the Texas A&M’s Institutional Animal Care and Use Committees. The 5 week-old female NSG mice (NOD.Cg-PrkdcscidIl2rgtm1Wjl/SzJ, Jackson Laboratory #005557) were ordered and kept under pathogen-free conditions for 1 week with free access to food and water after arrival for acclimation. Tumor models in these mice were then built by engrafting 1 × 10^6 MOLM-13-Luc cells (BPS Bioscience, 78372) through tail vein injection. Tumors were allowed to grow for 6 days, and then applied for treatment by oral gavage daily (day 0 was the beginning of treatment). Dosage of 200 or 400 mg/kg (vehicle of 5% DMSO, 45% PEG400, 2.5% Tween 80, and 47.5% water) was applied. Tumor growth was evaluated by bioluminescent imaging (BLI) using an IVIS In Vivo Imaging System by intraperitoneal injection of 150 mg/kg D-Luciferin potassium salt (MedChemExpress, HY-12591B). Their body weights were recorded every 2–3 days. Surviving mice were counted every day and the mortality was calculated. No animal was excluded from any of the analyses. The investigators were not blinded to allocation during experiments and outcome assessment.

[5] = human, human liver microsomes, pH 7.4, HLM 0.5 mg/mL, NADPH 1 mM, mean ± SD, n = 3
[6] = human, human liver microsomes, pH 7.4, HLM 0.5 mg/mL, NADPH 1 mM, mean ± SD, n = 3, read-out: Liver Microsome t1/2
[7] = mouse, male CD-1 mice, PO 20 mg/kg, read-out: AUC0–inf, oral
[8] = mouse, male CD-1 mice, PO 20 mg/kg

SMILES: CC(C)[C@H]1CCN1Cc1cc2cnc(NC(=O)c3ccc4nncn4c3)cc2[nH]1 [SR-C-107 (R), (R)-N-(2-((2-Isopropylazetidin-1-yl)methyl)-1H-pyrrolo[3,2-c]pyridin-6-yl)-[1,2,4]triazolo[4,3-a]pyridine-6-carboxamide]
- IC50 (ENL YEATS): 40 nM
- chromatographic logD [1]: 0.97
- Liver Microsome t1/2 ([2]; HLM 0.5 mg/mL, NADPH 1 mM, mean ± SD, n = 3): 6.9717 ± 0.6597 h
- CLint scaled at 1 h [2, 5]: 4.18 mL/min/kg
- half-life [2, 6]: 6.97 h
- IC50 at 8 days [3]: 1250 ± 180 nM
- IC50 at 72 h [4]: > 64000 nM
- inhibition at 1 µM (MOLM-13 cells): ~90%
- inhibition at 1 µM (MV4-11 cells): ~70%
- Cmax (PK analysis in mice; male, CD-1, mouse, mice, PO 20 mg/kg, corresponds to 285 ng/mL, read-out: oral Cmax expressed as effective concentration): 750 nM
- AUC(0-inf) (PK analysis in mice; [7]): 808 ng·h/mL
- Cmax (PK analysis in mice; mouse, male CD-1 mice, PO 20 mg/kg, read-out: Cmax, oral): 285 ng/mL
- half-life at 24 h (PK analysis in mice; [8]): 1.41 h
- tumor growth inhibition (TGI) (MOLM-13-Luc cells; 200 mg/kg PO QD, after 8 days of treatment): 49.5%
- tumor growth inhibition (TGI) (MOLM-13-Luc cells; 200 mg/kg PO QD, day 12): 45%
- median survival time (MOLM-13-Luc cells; 200 mg/kg PO QD, vehicle 10): 15 days post-treatment

SMILES: CC(C)C1CCN1Cc1ccc(CNC(=O)c2ccc3nncn3c2)cc1 (centres unmarked) [inhibitor 13]
- IC50 (ENL YEATS): 1260 ± 128 nM
- chromatographic logD [1]: 0.31
- CLint scaled at 1 h [2, 5]: 4.09 mL/min/kg
- half-life at 1 h [2, 6]: 7.11 ± 0.663 h
- parent compound remaining after 60 min incubation in HLM ([2]; in the presence of NADPH, 60 min): over 90%
- IC50 at 8 days [3]: 6060 nM
- IC50 at 72 h [4]: > 64000 nM
- inhibition at 1 µM (MOLM-13 cells): 30%
- inhibition at 10 µM (MOLM-13 cells; 10 μM): 85%
- inhibition at 1 µM (MV4-11 cells): 41%
- inhibition at 10 µM (MV4-11 cells; 10 μM): 75%
- half-life (PK analysis in mice; mouse, male CD-1 mice, IV 20 mg/kg, read-out: t1/2, IV (converted)): 1.05 ± 0.03 h
- Cmax at 24 h (PK analysis in mice; [8]): 2080 ng/mL
- AUC(0-inf) at 24 h (PK analysis in mice; [7]): 5140 ng·h/mL
- half-life at 24 h (PK analysis in mice; [8]): 0.84 h
- tumor reduction (MOLM-13-Luc cells; 200 mg/kg PO QD): no noticeable tumor reduction
- increase in median survival (MOLM-13-Luc cells; 400 mg/kg PO QD vs control): 33.3%
- tumor growth inhibition (TGI) (MOLM-13-Luc cells; 400 mg/kg PO QD, after 13 days of treatment, vs control): ~45%
- median survival (MOLM-13-Luc cells; 400 mg/kg PO QD, control 15): 20 post-treatment days
